This passage reports AC50, EC50 and IC50 results from ChEMBL document CHEMBL1201862, “PubChem BioAssay data set” (2004).

Test [1] deals with Acyl-homoserine lactone acylase PvdQ (Pseudomonas aeruginosa (strain LESB58), UniProt Q9I194). As to the kind of experiment: PvdQ acylase enzyme activity blockers – biochemical, fluorescence, plate reader and imaging, cherry-picks, dose response (AID 493231).
In test [2] the target is Lysosomal acid glucosylceramidase (Homo sapiens, UniProt P04062). As to the kind of experiment: Dose response cell-based high throughput screening assay to identify enhancers of beta-glucosidase activity. [Related pubchem assays: 784 ]. Format: functional.
Sequence of Lysosomal acid glucosylceramidase (P04062 whole entry): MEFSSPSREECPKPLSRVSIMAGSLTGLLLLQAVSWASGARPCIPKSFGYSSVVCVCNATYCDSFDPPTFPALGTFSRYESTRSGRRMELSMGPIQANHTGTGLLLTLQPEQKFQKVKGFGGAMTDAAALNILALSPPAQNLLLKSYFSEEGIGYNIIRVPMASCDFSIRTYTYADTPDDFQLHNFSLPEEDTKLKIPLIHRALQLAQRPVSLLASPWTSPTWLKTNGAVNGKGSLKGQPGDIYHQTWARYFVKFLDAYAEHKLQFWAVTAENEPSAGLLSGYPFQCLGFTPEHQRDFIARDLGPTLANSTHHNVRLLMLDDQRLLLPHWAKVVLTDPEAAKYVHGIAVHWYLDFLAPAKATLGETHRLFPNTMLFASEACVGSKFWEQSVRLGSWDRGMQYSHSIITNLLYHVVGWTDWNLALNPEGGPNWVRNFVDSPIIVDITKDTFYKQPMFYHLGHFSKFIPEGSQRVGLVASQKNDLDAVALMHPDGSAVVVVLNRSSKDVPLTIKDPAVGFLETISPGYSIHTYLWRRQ
In test [3] the target is Peroxisome proliferator-activated receptor gamma (Homo sapiens, UniProt P37231). As to the kind of experiment: competitive ligand displacement at PPARg – biochemical, TR-FRET, LanthaScreen, PPARg partial agonist project, dose response (AID 504446). (In general: Time-resolved FRET reads energy transfer from a long-lived donor to a nearby acceptor.)
Sequence of Peroxisome proliferator-activated receptor gamma (P37231 whole entry): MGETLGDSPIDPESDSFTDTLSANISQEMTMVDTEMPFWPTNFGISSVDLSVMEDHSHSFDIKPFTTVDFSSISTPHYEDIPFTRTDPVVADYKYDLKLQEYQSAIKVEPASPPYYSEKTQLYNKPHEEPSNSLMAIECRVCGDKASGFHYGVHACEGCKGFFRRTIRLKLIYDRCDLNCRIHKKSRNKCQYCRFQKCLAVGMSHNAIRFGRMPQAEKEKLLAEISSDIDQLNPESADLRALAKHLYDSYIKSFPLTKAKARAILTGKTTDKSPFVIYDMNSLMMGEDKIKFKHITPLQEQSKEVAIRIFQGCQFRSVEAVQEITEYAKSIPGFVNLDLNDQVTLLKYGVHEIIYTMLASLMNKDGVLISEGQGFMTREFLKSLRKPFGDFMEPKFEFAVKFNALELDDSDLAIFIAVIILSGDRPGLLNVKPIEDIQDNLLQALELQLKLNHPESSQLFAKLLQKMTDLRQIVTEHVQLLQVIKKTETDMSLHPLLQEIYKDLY
The target in test [4] is T1, Eukaryotic translation initiation factor 2-alpha kinase 3 (Homo sapiens, UniProt Q9NZJ5). As to the kind of experiment: Counterscreen assay for PERK inhibitors: Dose response cell-based high throughput screening assay to measure inhibition of PERK at 6 hours. [Related pubchem assays: 1522, 1416 ]. Type of test: functional.
T1 sequence (Q9NZJ5 whole entry): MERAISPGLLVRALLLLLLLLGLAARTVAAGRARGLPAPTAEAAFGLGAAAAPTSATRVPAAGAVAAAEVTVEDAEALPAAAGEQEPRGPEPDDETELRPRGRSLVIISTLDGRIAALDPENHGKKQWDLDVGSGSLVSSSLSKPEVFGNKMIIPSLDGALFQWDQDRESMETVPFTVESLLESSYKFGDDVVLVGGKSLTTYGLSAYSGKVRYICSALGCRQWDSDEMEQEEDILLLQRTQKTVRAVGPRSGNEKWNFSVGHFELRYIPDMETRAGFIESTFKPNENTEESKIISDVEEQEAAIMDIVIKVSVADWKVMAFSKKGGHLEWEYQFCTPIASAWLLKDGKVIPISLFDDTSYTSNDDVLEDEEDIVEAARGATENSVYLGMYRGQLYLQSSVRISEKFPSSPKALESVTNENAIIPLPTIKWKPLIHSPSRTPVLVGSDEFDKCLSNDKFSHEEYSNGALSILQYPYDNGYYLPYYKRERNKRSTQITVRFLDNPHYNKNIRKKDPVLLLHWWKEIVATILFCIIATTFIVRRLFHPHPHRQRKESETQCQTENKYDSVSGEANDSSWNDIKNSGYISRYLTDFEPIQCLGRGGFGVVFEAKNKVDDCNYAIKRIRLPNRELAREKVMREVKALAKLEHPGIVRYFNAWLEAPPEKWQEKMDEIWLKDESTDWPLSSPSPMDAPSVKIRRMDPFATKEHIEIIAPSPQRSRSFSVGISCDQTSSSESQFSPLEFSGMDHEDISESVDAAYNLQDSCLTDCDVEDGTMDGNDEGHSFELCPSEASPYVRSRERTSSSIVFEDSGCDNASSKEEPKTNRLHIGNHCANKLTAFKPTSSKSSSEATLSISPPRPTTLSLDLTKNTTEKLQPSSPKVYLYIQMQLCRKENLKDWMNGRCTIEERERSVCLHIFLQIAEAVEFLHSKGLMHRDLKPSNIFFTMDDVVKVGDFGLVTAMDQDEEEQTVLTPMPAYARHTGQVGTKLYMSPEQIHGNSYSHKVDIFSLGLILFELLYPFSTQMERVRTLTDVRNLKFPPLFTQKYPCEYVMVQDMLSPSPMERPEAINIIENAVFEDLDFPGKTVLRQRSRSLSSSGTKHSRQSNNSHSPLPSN
Test [5] deals with T1, Eukaryotic translation initiation factor 2-alpha kinase 3. Description: Dose response cell-based high-throughput screening assay to measure PERK inhibition. [Related pubchem assays: 1416 ]. Type of test: functional.

The source made the active and inactive calls.

Sequence of Acyl-homoserine lactone acylase PvdQ (Q9I194 24-193 limits assumed): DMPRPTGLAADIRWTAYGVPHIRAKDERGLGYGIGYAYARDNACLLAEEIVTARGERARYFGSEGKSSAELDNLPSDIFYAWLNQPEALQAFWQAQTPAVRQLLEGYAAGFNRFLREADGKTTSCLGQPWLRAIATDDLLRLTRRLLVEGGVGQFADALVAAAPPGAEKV
Sequence of Acyl-homoserine lactone acylase PvdQ (Q9I194 217-762 limits assumed): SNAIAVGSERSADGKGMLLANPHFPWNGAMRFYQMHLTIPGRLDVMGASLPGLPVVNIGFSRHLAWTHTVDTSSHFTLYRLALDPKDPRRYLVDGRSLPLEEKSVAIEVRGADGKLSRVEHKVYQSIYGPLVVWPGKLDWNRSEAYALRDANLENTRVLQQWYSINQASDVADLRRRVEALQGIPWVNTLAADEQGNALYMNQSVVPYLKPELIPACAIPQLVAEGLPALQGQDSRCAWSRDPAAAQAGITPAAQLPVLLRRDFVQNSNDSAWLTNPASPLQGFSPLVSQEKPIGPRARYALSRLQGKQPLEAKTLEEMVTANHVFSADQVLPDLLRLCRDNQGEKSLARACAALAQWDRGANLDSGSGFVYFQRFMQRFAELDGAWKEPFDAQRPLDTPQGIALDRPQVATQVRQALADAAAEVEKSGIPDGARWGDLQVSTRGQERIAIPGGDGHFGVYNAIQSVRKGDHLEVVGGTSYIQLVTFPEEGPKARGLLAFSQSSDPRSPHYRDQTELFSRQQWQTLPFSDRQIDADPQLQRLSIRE

Regarding `O=[N+]([O-])c1ccc(N2CCSCC2)cc1`, the AC50 in test [1] is > 100 µM (inactive). With `O=S(=O)(NCc1csc(-c2cccnc2)n1)c1ccc2c(c1)OCCO2`, the EC50 in test [2] was > 50 µM (not active).

`O=C(O)CCN1C(=O)/C(=C/c2ccccc2Cl)SC1=S`: the IC50 in test [3] is 2 µM (active). For the compound `CCCCOC(=O)C1C2C=C[C@]3(CN(CCCOC)C(=O)[C@H]13)O2` (stereo not given in full), the EC50 in test [4] and in test [5] was > 55.7 µM (not active) in each case.

By AC50 is commonly meant the concentration giving half of the maximal activity seen. By EC50 is commonly meant the concentration giving half of the maximal effect. The IC50 is the point on the concentration scale where inhibition reaches its midpoint.
